Values of other authors as cited in patent publication US12274695B2, “Pharmaceutical drug therapy for autism” (priority 2020, dated 2025).
Read-outs that look alike come from different tables or passages of the source.

Key:
[1] = system: monkey model of schizophrenia
[2] = in vivo
fear conditioning = details: preclinical, after fear conditioning
humans = details: in humans
[3] = system: mouse model of Alzheimer's disease (AD)
[4] = system: BTBR T+Itpr3 tf/J (BTBR) mice
adults with ASD = details: 7 mg transdermal nicotine, 1 week

| blood-brain barrier crossing [2] | plasma half-life compared with nicotine [2] | SMILES | working memory [1] | extinction of fear memory and anxiety (fear conditioning) | addictive or cardiovascular effects (humans) | working memory [3] | repetitive behaviors ([4]; BTBR mice) | social deficits ([4]; BTBR mice) | hotplate latency compared to vehicle ([4]; BTBR mice, higher doses) | hotplate latency compared to vehicle ([4]; BTBR mice, lower doses) | antinociceptive effects to noxious heat ([4]; control mice) | cold plate resistance ([4]; mice with Autism mutations, four-week nicotine treatment) | Sleep ratings (adults with ASD) | Aberrant Behavior Checklist-Irritability (ABC-I) subscale change from baseline (adults with ASD; compared to placebo, five subjects) | tolerability (adults with ASD; eight subjects) |
| --- | --- | --- | --- | --- | --- | --- | --- | --- | --- | --- | --- | --- | --- | --- | --- |
| crosses the blood-brain barrier | longer | CN1C(=O)CC[C@H]1c1cccnc1 [Cotinine] | improved | facilitated | no addictive or cardiovascular effects | improved |  |  |  |  |  |  |  |  |  |
|  |  | CN1CCCC1c1cccnc1 (stereo not drawn) [nicotine, Nicotine] |  |  |  |  | decrease repetitive behaviors | improve social deficits | decreased | increased | only at the high dose | increase | improved | improved | tolerated nicotine treatment well |
